The record followed here is patent US20080300231A1, “Antibacterial amide macrocycles VI” (priority 2005, published 2008).

Experiment [1] relates to S. aureus 133. Put plainly: Minimum inhibitory concentration (MIC), S. aureus 133. In kind it is cell-based. Here is the method:
(§1) Determination of the Minimum Inhibitory Concentration (MIC)
(§2) The minimum inhibitory concentration (MIC) is the minimum concentration of an antibiotic with which the growth of a test microbe is inhibited over 18-24 h. The inhibitor concentration can in these cases be determined by standard microbiological methods (see, for example, The National Committee for Clinical Laboratory Standards. Methods for dilution antimicrobial susceptibility tests for bacteria that grow aerobically; approved standard-fifth edition. NCCLS document M7-A5 [ISBN 1-56238-394-9]. NCCLS, 940 West Valley Road, Suite 1400, Wayne, Pa. 19087-1898 USA, 2000). The MIC of the compounds of the invention is determined in the liquid dilution test on the 96-well microtitre plate scale. The bacterial microbes are cultivated in a minimal medium (18.5 mM Na2HPO4, 5.7 mM KH2PO4, 9.3 mM NH4Cl, 2.8 mM MgSO4, 17.1 mM NaCl, 0.033 μg/ml of thiamine hydrochloride, 1.2 μg/ml of nicotinic acid, 0.003 μg/ml of biotin, 1% glucose, 25 μg/ml of each proteinogenic amino acid with the exception of phenylalanine; [H.-P. Kroll; unpublished]) with addition of 0.4% BH broth (test medium). In the case of Enterococcus faecium L4001, heat-inactivated fetal calf serum (FCS; GibcoBRL, Germany) is added to the test medium in a final concentration of 10%. Overnight cultures of the test microbes are diluted to an OD578 of 0.001 (to 0.01 in the case of enterococci) in fresh test medium, and incubated 1:1 with dilutions of the test substances (1:2 dilution steps) in test medium (200 μl final volume). The cultures are incubated at 37° C. for 18-24 hours; enterococci in the presence of 5% CO2
(§3) The lowest substance concentration in each case at which no visible bacterial growth occurs any more is defined as the MIC.
(§4) Alternative Method for Determining the Minimum Inhibitory Concentration (MIC)
(§5) The minimum inhibitory concentration (MIC) is the minimum concentration of an antibiotic with which the growth of a test microbe is inhibited over 18-24 h. The inhibitor concentration can in these cases be determined by standard microbiological methods with modified medium in an agar dilution test (see, for example, The National Committee for Clinical Laboratory Standards. Methods for dilution antimicrobial susceptibility tests for bacteria that grow aerobically; approved standard-fifth edition. NCCLS document M7-A5 [ISBN 1-56238-394-9]. NCCLS, 940 West Valley Road, Suite 1400, Wayne, Pa. 19087-1898 USA, 2000). The bacterial microbes are cultivated on 1.5% agar plates which contain 20% defibrinated horse blood. The test microbes, which are incubated overnight on Columbia blood agar plates (Becton-Dickinson), are diluted in PBS, adjusted to a microbe count of about 5×10^5 microbes/ml and placed dropwise (1-3 μl) on test plates. The test substances comprise different dilutions of the test substances (1:2 dilution steps). The cultures are incubated at 37° C. in the presence of 5% CO2 for 18-24 hours.
(§6) The lowest substance concentration in each case at which no visible bacterial growth occurred any more is defined as the MIC and is reported in μg/ml.

The next experiment has as its system S. aureus T17. Put plainly: Minimum inhibitory concentration (MIC), biphenomycin-resistant S. aureus T17. It counts as cell-based. As to conditions: Staphylococcus aureus; biphenomycin-resistant S. aureus T17; read-out: MIC S. aureus T17. As to the method: as §1, §2, §3, §4, §5, §6
The S. aureus strain T17 is isolated in vivo. CFW1 mice are infected intraperitoneally with 4×10^7 S. aureus 133 cells per mouse. 0.5 h after the infection, the animals are treated intravenously with 50 mg/kg biphenomycin B. The kidneys are removed from the surviving animals on day 3 after the infection. After homogenization of the organs, the homogenates are plated out as described for RN4220Bi^R on antibiotic-free and antibiotic-containing agar plates and incubated at 37° C. overnight. […] About 20 of these colonies are tested for the biphenomycin B MIC, and a colony with a MIC of >50 μM is selected for further cultivation, and the strain is referred to as T17.

Experiment [2] relates to Enterococcus faecium L4001. Nature of the experiment: Minimum inhibitory concentration (MIC), E. faecium L4001. It counts as cell-based. As to conditions: Enterococcus faecium. As to the method: as §1, §2, §3, §4, §5, §6
The target of experiment [3] is S. aureus 133 Translation. Nature of the experiment: S. aureus in vitro transcription-translation assay (firefly luciferase, S30 extract). In kind it is biochemical. As to conditions: 50% inhibition of the translation of firefly luciferase. The text has this: In Vitro Transcription-Translation with S. aureus Extracts
Construction of an S. aureus luciferase Reporter Plasmid
In order to construct a reporter plasmid which can be used in an in vitro transcription-translation assay from S. aureus the plasmid pBESTluc (Promega Corporation, USA) is used. The E. coli tac promoter present in this plasmid in front of the firefly luciferase is replaced with the capA1 promoter with appropriate Shine-Dalgarno sequence from S. aureus. The primers CAPFor 5′-CGGCCAAGCTTACTC-[…] […]-3′ and CAPRev 5′-[…]-3′ are used for this. The primer CAPFor contains the capA1 promoter, the ribosome binding site and the 5′ region of the luciferase gene. After PCR using pBESTluc as template it is possible to isolate a PCR product which contains the firefly luciferase gene with the fused capA1 promoter. This is, after restriction with ClaI and HindIII, ligated into the vector pBESTluc which has likewise been digested with ClaI and HindIII. The resulting plasmid p1a can be replicated in E. coli and can be used as template in the S. aureus in vitro transcription-translation test.
Preparation of S30 Extracts from S. aureus
Six litres of BHI medium are inoculated with a 250 ml overnight culture of an S. aureus strain and allowed to grow at 37° C. until the OD600 nm is 2-4. The cells are harvested by centrifugation and washed in 500 ml of cold buffer A (10 mM Tris acetate, pH 8.0, 14 mM magnesium acetate, 1 mM DTT, 1 M KCl). After renewed centrifugation, the cells are washed in 250 ml of cold buffer A with 50 mM KCl, and the resulting pellets are frozen at −20° C. for 60 min. The pellets are thawed on ice in 30 to 60 min and taken up to a total volume of 99 ml in buffer B (10 mM Tris acetate, pH 8.0, 20 mM magnesium acetate, 1 mM DTT, 50 mM KCl). 1.5 ml portions of lysostaphin (0.8 mg/ml) in buffer B are introduced into 3 precooled centrifuge cups and mixed with 33 ml of the cell suspension each. The samples are incubated at 37° C., shaking occasionally, for 45 to 60 min, before 150 μl of a 0.5 M DTT solution are added. The lysed cells are centrifuged at 30 000×g and 4° C. for 30 min. The cell pellet is taken up in buffer B and then centrifuged again under the same conditions, and the collected supernatants are combined. The supernatants are centrifuged again under the same conditions, and 0.25 volumes of buffer C (670 mM Tris acetate, pH 8.0, 20 mM magnesium acetate, 7 mM Na3 phosphoenolpyruvate, 7 mM DTT, 5.5 mM ATP, 70 μM amino acids (complete from Promega), 75 μg of pyruvate kinase (Sigma, Germany))/ml are added to the upper ⅔ of the supernatant. The samples are incubated at 37° C. for 30 min. The supernatants are dialysed against 2 l of dialysis buffer (10 mM Tris acetate, pH 8.0, 14 mM magnesium acetate, 1 mM DTT, 60 mM potassium acetate) in a dialysis tube with a 3500 Da cut-off with one buffer change at 4° C. overnight. The dialysate is concentrated to a protein concentration of about 10 mg/ml by covering the dialysis tube with cold PEG 8000 powder (Sigma, Germany) at 4° C. The S30 extracts can be stored in aliquots at −70° C.
Determination of the IC50 in the S. aureus In Vitro Transcription-Translation Assay
The inhibition of protein biosynthesis of the compounds can be shown in an in vitro transcription-translation assay. The assay is based on the cell-free transcription and translation of firefly luciferase using the reporter plasmid p1a as template and cell-free S30 extracts obtained from S. aureus. The activity of the resulting luciferase can be detected by luminescence measurement.
The amount of S30 extract or plasmid p1a to be employed must be tested anew for each preparation in order to ensure an optimal concentration in the assay. 3 μl of the substance to be tested, dissolved in 5% DMSO, are provided in an MTP. Then […] of a suitably concentrated plasmid solution p1a are added. […]

The test system of experiment [4] is S. aureus 133. Nature of the experiment: Systemic infection with S. aureus 133 (mouse sepsis model). It counts as in vivo, mouse (female CFW1). The note with it: i.p. infection, i.v. therapy 30 minutes after infection, survival recorded for 6 days. As to the method:
Systemic Infection with S. aureus 133
The suitability of the compounds of the invention for the treatment of bacterial infections can be shown in various animal models. For this purpose, the animals are generally infected with a suitable virulent microbe and then treated with the compound to be tested, which is present in a formulation which is adapted to the particular therapy model.
For this purpose, S. aureus 133 cells are cultured overnight in BH broth (Oxoid, Germany). The overnight culture was diluted 1:100 in fresh BH broth and expanded for 3 hours. The bacteria which are in the logarithmic phase of growth are centrifuged and washed twice with buffered physiological saline solution. A cell suspension in saline solution with an extinction of 50 units is then adjusted in a photometer (Dr Lange LP 2W). After a dilution step (1:15), this suspension is mixed 1:1 with a 10% mucine suspension. 0.2 ml of this infection solution is administered i.p. per 20 g of mouse. This corresponds to a cell count of about 1-2×10^6 microbes/mouse. The i.v. therapy takes place 30 minutes after the infection. Female CFW1 mice are used for the infection experiment. The survival of the animals is recorded for 6 days. The animal model is adjusted so that untreated animals die within 24 h after the infection.

Where [5] appears, read: Staphylococcus aureus, 133; read-out: MIC S. aureus 133.
The mark [6] stands for this setting: E. faecium L4001, test medium with 10% FCS, read-out: MIC E. faecium L4001.
Setting [7] is: Staphylococcus aureus, 133, read-out: MIC S. aureus 133.
Where [8] appears, read: L4001, read-out: MIC E. faecium L4001.

In brackets after ≈: the same amount, converted by molar mass. Structures can show the parent of a compound that is named as a salt. Where two headings read alike, the source gives them in different places.

`NCCC[C@@H]1NC(=O)[C@@H](N)Cc2cc(ccc2O)-c2ccc(O)c(c2)C[C@@H](C(=O)N(CCN)CC2CCCCN2)NC1=O` (stereo partly drawn) [Example 9]: the values for the MIC (in the experiment with S. aureus 133 [1] (setting [5]); with S. aureus T17; in experiment [2] (setting [6])) were 4 µg/mL (≈ 6.71 µM), 2 µg/mL (≈ 3.36 µM) and 32 µg/mL (≈ 53.7 µM), respectively. The IC50 in experiment [3] is 330 nM.

As for `NCCC[C@@H]1NC(=O)[C@@H](N)Cc2cc(ccc2O)-c2ccc(O)c(c2)C[C@@H](C(=O)N(CCN)CC(O)CN)NC1=O` (stereo partly drawn) [Example 8], the MIC with S. aureus 133 [1] (setting [5]) came out at 1 µg/mL (≈ 1.75 µM); in the experiment with S. aureus T17 it was 4 µg/mL (≈ 7 µM); in experiment [2] (setting [6]) it was 16 µg/mL (≈ 28 µM). This molecule returned a concentration for half-maximal inhibition (IC50) in experiment [3] of 250 nM.

Regarding `NCCC[C@@H]1NC(=O)[C@@H](N)Cc2cc(ccc2O)-c2ccc(O)c(c2)C[C@@H](C(=O)N2CCC[C@H]2C(=O)N[C@@H](CCCN)C(=O)NCCN)NC1=O` [Example 1, 1-{[(8S,11S,14S)-14-Amino-11-(3-aminopropyl)-5,17-dihydroxy-10,13-dioxo-9,12-diazatricyclo[14.3.1.1^2,6]henicosa-1(20),2(21),3,5,16,18-hexaen-8-yl]carbonyl}-L-prolyl-N-(2-aminoethyl)-L-ornithinamide tetrahydrochloride], the minimum inhibitory concentration (MIC) is 1 µg/mL in the experiment on S. aureus 133 [1] (setting [7]), 4 µg/mL in the experiment with S. aureus T17 and 2 µg/mL in experiment [2] (setting [8]). The IC50 in experiment [3] worked out at 700 nM.

Take `NCCC[C@@H]1NC(=O)[C@@H](N)Cc2cc(ccc2O)-c2ccc(O)c(c2)C[C@@H](C(=O)N(CCN)CCO)NC1=O` [Example 6]: the MIC is 2 µg/mL (≈ 3.69 µM) in the experiment with S. aureus 133 [1] (setting [5]), 4 µg/mL (≈ 7.37 µM) in the experiment on S. aureus T17 and 4 µg/mL (≈ 7.37 µM) in experiment [2] (setting [6]). In experiment [3], this molecule returned an IC50 of 700 nM.

As to `NCCC[C@@H]1NC(=O)[C@@H](N)Cc2cc(ccc2O)-c2ccc(O)c(c2)C[C@@H](C(=O)N2CCC[C@H]2C(=O)N[C@@H](CCCN)C(=O)NCCN)NC1=O.O=C(O)C(F)(F)F.O=C(O)C(F)(F)F.O=C(O)C(F)(F)F.O=C(O)C(F)(F)F` [Example 2, 1-{[(8S,11S,14S)-14-Amino-11-(3-aminopropyl)-5,17-dihydroxy-10,13-dioxo-9,12-diazatricyclo[14.3.1.1^2,6]henicosa-1(20),2(21),3,5,16,18-hexaen-8-yl]carbonyl}-L-prolyl-N-(2-aminoethyl)-L-ornithinamide tetra(hydrotrifluoroacetate)], in the experiment on S. aureus 133 [4], the “ED100 (therapeutic effect)” value is 1.25 mg/kg.

For the molecule `CNCCN(CCN)C(=O)[C@@H]1Cc2cc(ccc2O)-c2ccc(O)c(c2)C[C@H](N)C(=O)N[C@@H](CCCN)C(=O)N1` [Example 3, (8S,11S,14S)-14-Amino-N-(2-aminoethyl)-11-(3-aminopropyl)-5,17-dihydroxy-N-[2-(methylamino)ethyl]-10,13-dioxo-9,12-diazatricyclo[14.3.1.1^2,6]henicosa-1(20),2(21),3,5,16,18-hexaene-8-carboxamide tetrahydrochloride], the MIC in the experiment on S. aureus 133 [1] (setting [7]) turned out to be 2 µg/mL; in the experiment on S. aureus T17, 4 µg/mL; in experiment [2] (setting [8]) it was 8 µg/mL. For the same molecule, the 50% inhibitory concentration (IC50) in experiment [3] was 800 nM.

Usually MIC stands for the lowest concentration that inhibits growth of the organism. The IC50 is the concentration that gives 50% inhibition. The low end stands for greater potency, the high end for weaker potency.
